This passage reports MIC results from US20120114797A1, “TALAROMYCES STRAINS AND ENZYME COMPOSITIONS” (DSM IP ASSETS B.V., priority 2009, published 2012).

Test [1] deals with TEC-180. The experiment in a line: MIC of 2-deoxyglucose on YNB+agar plates, TEC-180. The class given is cell-based, Talaromyces emersonii. The following applies: 10^7/ml spore suspensions of TEC-180 on YNB+agar plates.
The test system of test [2] is TEC-142. Put plainly: MIC of glucose analogs on YNB+agar plates, TEC-142. The class given is cell-based, Talaromyces emersonii. The following applies: 10^7/ml spore suspensions of TEC-142 on YNB+agar plates.
Experimental: MIC values of various glucose analogs (2-deoxyglucose, 1-thioglucose, 5-thioglucose) are determined by examining growth after inoculation of 0.1 ml dilutions of 10^7/ml spore suspensions of TEC-142 on YNB+agar plates with increasing concentrations of analogs.
The MIC value of 2-deoxyglucose (DOG) was determined by examining growth after inoculation of 0.1 ml dilutions of 10^7/ml spore suspensions of TEC-142 on YNB+agar plates with increasing concentrations of analog.

A word on the MIC: it is the lowest concentration found to suppress growth. For the compound `O=CC[C@@H](O)[C@H](O)[C@H](O)CO` [2-deoxyglucose, 2-deoxy-D-glucose], the MIC in test [1] and in test [2] was 500 µg/mL in each case.

As for `OC[C@@H](O)[C@@H](O)[C@H](O)[C@@H](O)C=S` [1-thioglucose], the MIC in test [2] is 4000 µg/mL.
